The values that follow come from PMC11831592, “Repurposing Linezolid in Conjunction with Histone Deacetylase Inhibitor Access in the Realm of Glioblastoma Therapies” (Journal of Medicinal Chemistry, 2025).

As usually defined, the IC50 is the concentration needed to halve the response being measured. High values mean lower potency, low ones higher potency.

The test system of one data set is GBM. Also on record: method as in PMID 31505812. The conditions noted are these: GBM patients, vs 12.7 months; cited from earlier work.
The next data set concerns the target T1, HDAC2 (Homo sapiens, UniProt Q92769).
T1 construct: purchased Reaction Biology Corporation, Malvern, PA (contract assay service)
The experiment in a line: HDAC enzyme inhibition assay, HDAC2. Type of data set: biochemical. The settings on record: 10-dose, 3-fold serial dilution starting at 10 μM. The protocol:
(§1) Enzyme inhibition assays were performed by the Reaction Biology Corporation, Malvern, PA (http://www.reactionbiology.com).

The target of a further data set is T2, HDAC1 (Homo sapiens, UniProt Q13547).
T2 construct: purchased Reaction Biology Corporation, Malvern, PA (contract assay service)
T2 sequence (Q13547 whole entry): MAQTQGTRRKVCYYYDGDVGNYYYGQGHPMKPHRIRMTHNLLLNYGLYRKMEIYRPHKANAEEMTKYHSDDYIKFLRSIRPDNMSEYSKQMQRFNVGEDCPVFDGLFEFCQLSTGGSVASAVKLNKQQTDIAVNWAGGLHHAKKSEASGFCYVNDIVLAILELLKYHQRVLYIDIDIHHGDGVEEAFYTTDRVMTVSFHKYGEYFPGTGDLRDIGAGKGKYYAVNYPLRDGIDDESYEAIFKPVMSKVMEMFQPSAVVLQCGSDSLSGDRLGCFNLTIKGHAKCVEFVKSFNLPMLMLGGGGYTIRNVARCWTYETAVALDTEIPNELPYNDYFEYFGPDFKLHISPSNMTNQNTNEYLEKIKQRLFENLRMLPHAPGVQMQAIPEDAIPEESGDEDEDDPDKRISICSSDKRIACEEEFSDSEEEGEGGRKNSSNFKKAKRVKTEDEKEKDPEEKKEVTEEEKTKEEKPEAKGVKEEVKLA
The data set is described as follows: HDAC enzyme inhibition assay, HDAC1. In kind it is biochemical. The settings on record: 10-dose, 3-fold serial dilution starting at 10 μM. As to the method:
as §1

The target in a further data set is T3, HDAC6 (Homo sapiens, UniProt Q9UBN7).
T3 construct: purchased Reaction Biology Corporation, Malvern, PA (contract assay service)
T3 sequence (Q9UBN7 1-1215): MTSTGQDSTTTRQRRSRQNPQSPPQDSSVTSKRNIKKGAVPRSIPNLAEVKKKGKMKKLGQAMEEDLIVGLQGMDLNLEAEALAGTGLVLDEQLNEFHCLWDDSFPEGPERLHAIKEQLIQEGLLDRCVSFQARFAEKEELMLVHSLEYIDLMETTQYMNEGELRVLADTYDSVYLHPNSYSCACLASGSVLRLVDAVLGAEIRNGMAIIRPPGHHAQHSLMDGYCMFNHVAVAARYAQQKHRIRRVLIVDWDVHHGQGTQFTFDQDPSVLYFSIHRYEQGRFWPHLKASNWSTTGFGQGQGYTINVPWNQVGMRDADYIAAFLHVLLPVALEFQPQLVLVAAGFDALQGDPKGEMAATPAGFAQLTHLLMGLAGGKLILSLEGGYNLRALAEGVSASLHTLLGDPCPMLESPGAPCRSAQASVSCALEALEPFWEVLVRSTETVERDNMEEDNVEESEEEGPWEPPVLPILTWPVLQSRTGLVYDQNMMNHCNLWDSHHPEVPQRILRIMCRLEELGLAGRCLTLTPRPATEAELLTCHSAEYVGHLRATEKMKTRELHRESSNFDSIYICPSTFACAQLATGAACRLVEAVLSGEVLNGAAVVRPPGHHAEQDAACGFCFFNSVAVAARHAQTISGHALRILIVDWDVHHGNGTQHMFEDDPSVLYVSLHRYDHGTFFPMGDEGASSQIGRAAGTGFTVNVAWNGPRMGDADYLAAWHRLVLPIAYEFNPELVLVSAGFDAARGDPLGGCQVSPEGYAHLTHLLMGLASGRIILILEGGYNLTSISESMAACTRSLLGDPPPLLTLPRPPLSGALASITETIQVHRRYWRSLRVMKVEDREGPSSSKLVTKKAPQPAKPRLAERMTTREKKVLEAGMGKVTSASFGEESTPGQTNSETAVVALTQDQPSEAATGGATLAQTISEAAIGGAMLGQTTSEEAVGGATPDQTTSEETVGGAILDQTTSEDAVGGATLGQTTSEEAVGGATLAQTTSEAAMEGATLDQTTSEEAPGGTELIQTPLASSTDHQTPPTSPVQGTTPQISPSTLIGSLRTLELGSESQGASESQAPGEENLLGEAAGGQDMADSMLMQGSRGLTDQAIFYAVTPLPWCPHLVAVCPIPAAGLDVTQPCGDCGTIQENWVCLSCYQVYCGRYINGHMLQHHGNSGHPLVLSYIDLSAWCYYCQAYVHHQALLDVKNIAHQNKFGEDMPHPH
The experiment in a line: HDAC enzyme inhibition assay, HDAC6. In kind it is biochemical. The conditions noted are these: 10-dose, 3-fold serial dilution starting at 10 μM. As to the method: as §1

In the next data set the target is T4, HDAC8 (Homo sapiens, UniProt Q9BY41).
T4 construct: purchased Reaction Biology Corporation, Malvern, PA (contract assay service)
T4 sequence (Q9BY41 1-377): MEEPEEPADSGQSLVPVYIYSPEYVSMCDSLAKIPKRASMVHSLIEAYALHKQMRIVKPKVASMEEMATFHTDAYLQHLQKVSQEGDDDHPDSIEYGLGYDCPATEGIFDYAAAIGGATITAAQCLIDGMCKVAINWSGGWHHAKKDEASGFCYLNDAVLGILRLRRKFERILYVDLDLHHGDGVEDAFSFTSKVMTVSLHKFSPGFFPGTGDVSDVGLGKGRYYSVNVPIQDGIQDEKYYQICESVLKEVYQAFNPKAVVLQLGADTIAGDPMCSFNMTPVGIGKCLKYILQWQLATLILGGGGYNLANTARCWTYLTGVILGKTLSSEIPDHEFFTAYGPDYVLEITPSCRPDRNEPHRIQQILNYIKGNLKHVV
The data set is described as follows: HDAC enzyme inhibition assay, HDAC8. Type of data set: biochemical. The settings on record: 10-dose, 3-fold serial dilution starting at 10 μM. As to the method:
as §1

In data set [1] the test system is PT#3-R TMZ-resistant GBM cell line. The data set is described as follows: cells. Type of data set: cell-based. The conditions noted are these: MTT; for IC50: Homo sapiens, 72 h. As to the method:
The cytotoxic effects of these compounds were assessed using the MTT assay (Table 1 and Supporting Information IV).
MTT assay was employed to evaluate the cytotoxicity of the synthesized compound against resistant GBM cells. The MTT (3-(4,5-dimethylthiazol-2-yl)-2,5-diphenyltetrazolium bromide, catalog no. AM0818-0005) powder was purchased from BIONOVAS (Ontario, Canada). The MTT was prepared at 10 mg/mL stock with ultrapure water and then stored at −20 °C. […] Before the experiment, the MTT stock was 10-fold diluted with the culture medium and then incubated with cells for 30 min. After the incubation, the MTT medium was discarded and added 300 μL of dimethyl sulfoxide (DMSO, cat. no. D2650, Sigma-Aldrich, MO, USA) to dissolve the cells.

Data set [2] has as its system TMZ-resistant GBM cell lines A172R and PT#3R. The experiment in a line: MTT cytotoxicity assay, TMZ-resistant GBM lines (statement in words). Type of data set: cell-based. The settings on record: 0 to 80 μM, 72 h. As to the method: (§2) We utilized linezolid as the structural foundation to confirm the cytotoxicity of linezolid-conjugated functional domains against glioblastoma (GBM). We combined it with the binding structures of anti-histone deacetylases (HDACs) (denoted as compounds 1–5 and 11–14), antitubulin (compound 6), anticyclooxygenase (COX) (compound 7), and anti-heat shock protein 90 (Hsp90) (compounds 8–10). These constructs were then administered to TMZ-resistant GBM cell lines A172R and PT#3R at concentrations ranging from 0 to 80 μM over 72 h. The cytotoxic effects of these compounds were assessed using the MTT assay (Table 1 and Supporting Information IV). […] Given the remarkable cytotoxicity of compound 1 on both A172-R and PT#3-R TMZ-resistant cells, this study subsequently focused on compound 1 for further in-depth investigation and mechanistic exploration. To validate that the cytotoxic effect of compound 1 on GBM is not attributed to linezolid alone, we separately treated the TMZ-resistant GBM cell line PT#3-R with compound 1 and linezolid. […] This confirms that the cytotoxicity of compound 1 against GBM is primarily attributable to the inhibitory structure of linezolid-conjugated HDAC (Figure 2A). Furthermore, we compared the cytotoxic effects of compound 1 on various wild-type brain tumor cell lines, including U87MG, PT#3, LN229 GBM cells, and CT-2A mouse astrocyte cell line as well as TMZ-resistant variants cell lines, including U87MG-R, PT#3-R, CT-2A-R, and T98G (MGMT-positive). […] Additionally, we further confirmed the efficacy of compound 1 in GBM treatment.
MTT assay was employed to evaluate the cytotoxicity of the synthesized compound against resistant GBM cells. The MTT (3-(4,5-dimethylthiazol-2-yl)-2,5-diphenyltetrazolium bromide, catalog no. AM0818-0005) powder was purchased from BIONOVAS (Ontario, Canada). The MTT was prepared at 10 mg/mL stock with ultrapure water and then stored at −20 °C. […] Finally, 100 μL of the mixture was transferred to measure the OD 595 nm absorbance.

The subject of data set [3] is A172-R TMZ-resistant GBM cell line. The data set is described as follows: MTT cytotoxicity assay, A172-R. In kind it is cell-based. The settings on record: Homo sapiens, 72 h. The protocol: as §2
MTT assay was employed to evaluate the cytotoxicity of the synthesized compound against resistant GBM cells. The MTT (3-(4,5-dimethylthiazol-2-yl)-2,5-diphenyltetrazolium bromide, catalog no. AM0818-0005) powder was purchased from BIONOVAS (Ontario, Canada). The MTT was prepared at 10 mg/mL stock with ultrapure water and then stored at −20 °C. All cells were seeded 2.5 × 10^4 per well in the 24-well plate for 24 h, followed by treating at different concentrations of compounds for 72 h. Before the experiment, the MTT stock was 10-fold diluted with the culture medium and then incubated with cells for 30 min. After the incubation, the MTT medium was discarded and added 300 μL of dimethyl sulfoxide (DMSO, cat. no. D2650, Sigma-Aldrich, MO, USA) to dissolve the cells. Finally, 100 μL of the mixture was transferred to measure the OD 595 nm absorbance.
In general terms: Formazan colour is commonly taken as a measure of viable cells.

On the set-up of data set [4]: method as in PMID 36921275. The conditions noted are these: meningitis patients; cited from earlier work.
For data set [5] the following is noted: within 5–7 h; cited from earlier work.

T1 sequence (Q92769 whole entry): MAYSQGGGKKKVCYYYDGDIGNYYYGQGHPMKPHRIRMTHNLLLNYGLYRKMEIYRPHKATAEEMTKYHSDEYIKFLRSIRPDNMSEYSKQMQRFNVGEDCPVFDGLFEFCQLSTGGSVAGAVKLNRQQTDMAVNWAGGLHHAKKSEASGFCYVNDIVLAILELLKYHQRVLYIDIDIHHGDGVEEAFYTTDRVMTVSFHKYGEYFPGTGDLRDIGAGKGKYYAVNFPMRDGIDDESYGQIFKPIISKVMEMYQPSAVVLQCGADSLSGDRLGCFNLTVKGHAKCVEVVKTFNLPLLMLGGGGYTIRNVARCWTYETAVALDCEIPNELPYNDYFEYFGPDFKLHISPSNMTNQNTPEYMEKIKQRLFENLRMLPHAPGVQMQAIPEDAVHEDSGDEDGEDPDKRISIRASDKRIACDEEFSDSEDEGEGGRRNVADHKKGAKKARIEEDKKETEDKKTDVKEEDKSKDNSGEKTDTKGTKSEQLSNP

On to `Cn1nnc2c(C(N)=O)ncn2c1=O` [TMZ, temozolomide], for which the overall survival with GBM is reported as 21.7 months.

With `O=C(CCCCCCC(=O)NC[C@H]1CN(c2ccc(N3CCOCC3)c(F)c2)C(=O)O1)NO` [compound 2, (S)-N1-((3-(3-Fluoro-4-morpholinophenyl)-2-oxooxazolidin-5-yl)methyl)-N8-hydroxyoctanediamide], the IC50 against HDAC2 was 6.43 µM; at HDAC1 it was 3.37 µM; at HDAC6 it was 0.304 µM; against HDAC8 it was 1.11 µM; in [1] it was 164 ± 41.5 µM.

On to `O=C(NO)c1ccc(CNC[C@H]2CN(c3ccc(N4CCOCC4)c(F)c3)C(=O)O2)cc1` [compound 3, (S)-4-((((3-(3-Fluoro-4-morpholinophenyl)-2-oxooxazolidin-5-yl)methyl)amin-o)methyl)-N-hydroxybenzamide], for which the IC50 is above 10 µM against HDAC2; above 10 µM at HDAC1; 0.061 µM at HDAC6; 0.938 µM at HDAC8; 114 ± 20.8 µM in [1].

For the molecule `Nc1ccccc1NC(=O)c1ccc(CNC[C@H]2CN(c3ccc(N4CCOCC4)c(F)c3)C(=O)O2)cc1` [compound 4, (S)-N-(2-Aminophenyl)-4-((((3-(3-fluoro-4-morpholinophenyl)-2-oxooxazolidin-5-yl)methyl)amino)methyl)benzamide], the half-inhibitory concentration (IC50) against HDAC2 is 2.02 µM; against HDAC1, 0.979 µM; in data set [3], 19 ± 2.53 µM; in [1] it was 41.4 ± 5.01 µM. In [2], the “cytotoxicity in TMZ-resistant GBM” value was “exhibited the capacity to induce cytotoxicity”.

Turning to `O=C(/C=C/c1cccc(S(=O)(=O)NC[C@H]2CN(c3ccc(N4CCOCC4)c(F)c3)C(=O)O2)c1)NO` [compound 5, (R,E)-3-(3-(N-((3-(3-Fluoro-4-morpholinophenyl)-2-oxooxazolidin-5-yl)methyl)su-lfamoyl)phenyl)-N-hydroxyacrylamide], the IC50 was 1.66 µM at HDAC2; 0.735 µM against HDAC1; 0.095 µM on HDAC6; 0.803 µM on HDAC8; 124 ± 17.5 µM in data set [1].

For the molecule `O=C(NC[C@H]1CN(c2ccc(N3CCOCC3)c(F)c2)C(=O)O1)c1cc(Cl)ccc1O` [compound 7, (S)-5-Chloro-N-((3-(3-fluoro-4-morpholinophenyl)-2-oxooxazolidin-5-yl)methyl)-2-hydroxybenzamide], the IC50 in [3] stood at 224 ± 80.3 µM; in data set [1] it was 52.1 ± 6.26 µM.

Consider `CC(C)c1cc(C(=O)NC[C@H]2CN(c3ccc(N4CCOCC4)c(F)c3)C(=O)O2)c(O)cc1O` [compound 8, (S)-N-((3-(3-Fluoro-4-morpholinophenyl)-2-oxooxazolidin-5-yl)methyl)-2,4-dihydroxy-5-isopropylbenzamide], for which the IC50 in data set [3] turned out to be 65.2 ± 11.2 µM; in [1] it was 58 ± 6.23 µM.

For `CC(C)c1cc(C(=O)N(C)C[C@H]2CN(c3ccc(N4CCOCC4)c(F)c3)C(=O)O2)c(O)cc1O` [compound 9, (S)-N-((3-(3-Fluoro-4-morpholinophenyl)-2-oxooxazolidin-5-yl)methyl)-2,4-dihydroxy-5-isopropyl-N-methylbenzamide], the “cytotoxicity in TMZ-resistant GBM” value in data set [2] is “exhibited the capacity to induce cytotoxicity”. Besides, the figures for the IC50 in [3] and in [1] were 35.6 ± 4.64 µM and 15.3 ± 2.1 µM, respectively.

Take `CCN(C[C@H]1CN(c2ccc(N3CCOCC3)c(F)c2)C(=O)O1)C(=O)c1cc(C(C)C)c(O)cc1O` [compound 10, (S)-N-((3-(3-Fluoro-4-morpholinophenyl)-2-oxooxazolidin-5-yl)methyl)-2,4-dihydroxy-5-isopropyl-N-ethylbenzamide]: the IC50 in [3] was 80.6 ± 9.99 µM; in [1], 48.8 ± 4.77 µM.

Consider `CC(=O)NC[C@H]1CN(c2ccc(N3CCOCC3)c(F)c2)C(=O)O1` [linezolid, (S)-N-((3-(3-Fluoro-4-morpholinophenyl)-2-oxooxazolidin-5-yl)methyl)acetamide], for which, in data set [4], the “penetration between blood and cerebrospinal fluid” value is “more than 70%”. Further, the “excreted in its original form in urine” value in [5] is reported as 30%. The “cytotoxicity in resistant GBM cells” value in data set [1] (80 to 100 μM) is reported as “did not induce cytotoxicity”.
